Experimental data as given in PubChem BioAssay AID1963981 (Molecular Pharmacology Branch, DTP, NCI, 2024).

Test system: 354836-022-R-J1-PDC multicell spheroid viability
Experiment: Anticancer human tumor 354836-022-R-J1-PDC patient-derived head and neck squamous cell carcinoma cell line growth inhibition [PI3K]
Conditions: for viability, T/C: stronger effect = lower value; active = viability on the fitted dose curve at most 10% of control; inactive = the rest
Description: Combinatorial screen of targeted agents with the PI3K inhibitors inavolisib, alpelisib, duvelisib, and copanlisib in multi-cell type tumor spheroids
A high-throughput screen of multi-cell type tumor spheroids was designed to identify active combinations of targeted small molecules and PI3K pathway inhibitors. Complex spheroids include a stromal component modeled by human endothelial cells (HUVEC) and fibroblasts modeled by human mesenchymal stem cells (MSCs). The concentration ranges selected for each drug and investigational agent were based upon clinically achievable concentrations if the clinical Cmax of the agent was known.
Compounds. The drugs and investigational agents: inavolisib (NSC800729), alpelisib (NSC765974), duvelisib (NSC772469), copanlisib (NSC816437), ipatasertib (NSC767898), afuresertib (NSC778305), talazoparib (NSC767125), sapanisertib (NSC764658), selumetinib (NSC741078), tovorafenib (DAY101, NSC766906), vemurafenib (NSC761431), ravoxertinib (NSC781343), sotorasib (NSC818433), MRTX1133 (NSC 836407), abemaciclib (NSC 768073), palbociclib (NSC758247), venetoclax (NSC 766270), SY5609 (NSC837396), enzalutamide (NSC755605), and darolutamide (NSC825331), were obtained from the National Cancer Institute (NCI) Developmental Therapeutics Program Chemical Repository. The FDA-approved anticancer drug set is available from the NCI Developmental Therapeutics Program. […] The stock solutions were prepared in dimethyl sulfoxide (DMSO, Sigma-Aldrich, St. Louis, MO, cat. D2650) at 800-fold the tested concentration and stored at -70 degrees C prior to their use. All drugs and investigational agents were tested over a range starting from a high concentration at or near the clinical Cmax and decreasing in half-log increments. If the clinical Cmax for an agent had not been determined, the highest concentration tested was 10 microM.
Cell Culture. All cells were maintained in an incubator at 37 degrees C and 5% CO2 with 95% humidity. The PDC lines were cultured according to standard operating procedures established by the NCI PDMR (https://pdmr.cancer.gov/sops/default.htm). All PDCs were thawed and cultured in Matrigel-coated flasks prepared with a working solution of 1X Ham's F-12 nutrient mix, without supplementation (Invitrogen, Waltham, MA, cat. 11765054), 100 U/mL penicillin-streptomycin (Invitrogen, cat. 15140122), and 2.5% Matrigel (Corning Inc., Corning, NY, cat. 354248) for the first three passages. The 354836-022-R-J1-PDC, 475296-252-R-J1-PDC, and 997726-040-R-J2-PDC lines were cultured in 6A media, which includes advanced DMEM/F-12 (Thermo Fisher Scientific, cat. 12634028), 10 mM HEPES (Thermo Fisher Scientific, cat. 15630080), 1X GlutaMAX supplement (Thermo Fisher Scientific, cat. 35050061), 0.1 mg/mL primocin (InvivoGen, San Diego, CA, cat. ant-pm-2), 10% defined fetal bovine serum, heat inactivated (HyClone Laboratories Inc., Logan, UT, cat. SH30070.03HI), 50% L-WRN conditioned media (ATCC, cat. CRL-3276), 1.25 mM N-Acetyl-L-cysteine (Sigma-Aldrich, cat. A9165), 10 mM nicotinamide (Sigma-Aldrich, cat. N0636), 1X B-27 supplement (Thermo Fisher Scientific, cat. 17504044), 1X N-2 supplement (Thermo Fisher Scientific, cat. 17502048), and 10 microM Y-27632 dihydrochloride (Tocris Bioscience, Bristol, United Kingdom, cat. 1254). The 624824-186-R-J2-PDC line was cultured in 6C/Colon 1B media, which includes all 6A media components plus 50 ng/mL human EGF recombinant protein (Thermo Fisher Scientific, cat. PHG0311). […]
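Note: spheroids exposed to agents for seven days before the viability read.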

CNC(=O)c1ccc(N2C(=S)N(c3ccc(C#N)c(C(F)(F)F)c3)C(=O)C2(C)C)cc1F + COc1c(OCCCN2CCOCC2)ccc2c3n(c(=NC(=O)c4cnc(N)nc4)nc12)CCN3
active: viability, T/C (second compound 1 µM, first compound 0.0316 µM) 1.3% | viability, T/C (second compound 1 µM, first compound 0.1 µM) 1.27% | viability, T/C (second compound 1 µM, first compound 0.316 µM) 1.65% | viability, T/C (second compound 1 µM, first compound 1 µM) 1.63% | viability, T/C (second compound 1 µM, first compound 3.16 µM) 1.96% | viability, T/C (second compound 1 µM, first compound 10 µM) 0.99%
> 10 µM: IC50 (curve of first compound, second compound 0.00316 µM) | IC50 (curve of first compound, second compound 0.01 µM) | IC50 (curve of first compound, second compound 0.0316 µM)
< 0.0316 µM: IC50 (curve of first compound, second compound 0.1 µM) | IC50 (curve of first compound, second compound 0.316 µM) | IC50 (curve of first compound, second compound 1 µM)
inactive: viability, T/C (second compound 0.00316 µM, first compound 0.0316 µM) 93.6% | viability, T/C (second compound 0.00316 µM, first compound 0.1 µM) 102% | viability, T/C (second compound 0.00316 µM, first compound 0.316 µM) 101% | viability, T/C (second compound 0.00316 µM, first compound 1 µM) 107% | viability, T/C (second compound 0.00316 µM, first compound 3.16 µM) 124% | viability, T/C (second compound 0.00316 µM, first compound 10 µM) 93.2% | viability, T/C (second compound 0.01 µM, first compound 0.0316 µM) 97.3% | viability, T/C (second compound 0.01 µM, first compound 0.1 µM) 92.8% | viability, T/C (second compound 0.01 µM, first compound 0.316 µM) 92.7% | viability, T/C (second compound 0.01 µM, first compound 1 µM) 97.7% | viability, T/C (second compound 0.01 µM, first compound 3.16 µM) 102% | viability, T/C (second compound 0.01 µM, first compound 10 µM) 108% | viability, T/C (second compound 0.0316 µM, first compound 0.0316 µM) 78.1% | viability, T/C (second compound 0.0316 µM, first compound 0.1 µM) 80% | viability, T/C (second compound 0.0316 µM, first compound 0.316 µM) 81.8% | viability, T/C (second compound 0.0316 µM, first compound 1 µM) 83.7% | viability, T/C (second compound 0.0316 µM, first compound 3.16 µM) 80.4% | viability, T/C (second compound 0.0316 µM, first compound 10 µM) 77% | viability, T/C (second compound 0.1 µM, first compound 0.0316 µM) 47.8% | viability, T/C (second compound 0.1 µM, first compound 0.1 µM) 50.8% | viability, T/C (second compound 0.1 µM, first compound 0.316 µM) 57.1% | viability, T/C (second compound 0.1 µM, first compound 1 µM) 49.2% | viability, T/C (second compound 0.1 µM, first compound 3.16 µM) 58.4% | viability, T/C (second compound 0.1 µM, first compound 10 µM) 49.9% | viability, T/C (second compound 0.316 µM, first compound 0.0316 µM) 16.4% | viability, T/C (second compound 0.316 µM, first compound 0.1 µM) 18.1% | viability, T/C (second compound 0.316 µM, first compound 0.316 µM) 13.4% | viability, T/C (second compound 0.316 µM, first compound 1 µM) 10.8% | viability, T/C (second compound 0.316 µM, first compound 3.16 µM) 14.5% | viability, T/C (second compound 0.316 µM, first compound 10 µM) 12.6%

COc1c(OCCCN2CCOCC2)ccc2c3n(c(=NC(=O)c4cnc(N)nc4)nc12)CCN3
active: viability, T/C (compound 1 µM) 1.63% [middle of 8 runs]
11.2% [middle of 8 runs]: viability, T/C (compound 0.316 µM)
inactive: viability, T/C (compound 0.00316 µM) 106% [middle of 8 runs] | viability, T/C (compound 0.01 µM) 97.6% [middle of 8 runs] | viability, T/C (compound 0.0316 µM) 82.5% [middle of 8 runs] | viability, T/C (compound 0.1 µM) 50.2% [middle of 8 runs]
91.2 nM [middle of 8 runs]: IC50 (compound alone, run of 06/13/2023)

CCCS(=O)(=O)Nc1ccc(F)c(C(=O)c2c[nH]c3ncc(-c4ccc(Cl)cc4)cc23)c1F
inactive: viability, T/C (compound 0.1 µM) 109% [middle of 4 runs] | viability, T/C (compound 0.316 µM) 104% [middle of 4 runs] | viability, T/C (compound 1 µM) 91.5% [middle of 4 runs] | viability, T/C (compound 3.16 µM) 86% [middle of 4 runs] | viability, T/C (compound 10 µM) 24.8% [middle of 4 runs]
6.06 µM [middle of 4 runs]: IC50 (curve of compound)
